Experimental data published in ChEMBL document CHEMBL3217459, “3-Diarylethyne quinazolinones: a new class of senescence inducers” (Medchemcomm, 2013).
Active and inactive are the calls of the source. No cut-off for these calls is given here.

Experiments:
MCF7 [1] = test: Induction of senescence in human MCF7 cells expressing wild type p53 at 4 uM after 24 hrs by Western blot analysis; assay type: functional, cell-based
MCF7 [2] = test: Induction of senescence in human MCF7 cells assessed as blue colotation and adopted a flattened morphology with spread out cytoplasm at 4 uM after 72 hrs by SA-beta-gal assay; assay type: functional, cell-based
MCF7 [3] = test: Cell cycle arrest in human MCF7 cells assessed as accumulation at G2/M phase at 4 uM after 24 hrs using propidium iodide staining by FACS analysis (reference value: 19%); assay type: functional
MCF7 [4] = test: Cell cycle arrest in human MCF7 cells assessed as accumulation at S phase at 4 uM after 24 hrs using propidium iodide staining by FACS analysis (reference value: 11%); assay type: functional
MCF7 [5] = test: Cell cycle arrest in human MCF7 cells assessed as accumulation at G1 phase at 4 uM after 24 hrs using propidium iodide staining by FACS analysis (reference value: 70%); assay type: functional
[6] = Cytotoxicity against human MCF10A cells assessed as cell viability after 48 hrs by MTT assay; assay type: cell-based; details: MCF-10A
COLO 205 = test: Cytotoxicity against human COLO205 cells assessed as cell viability after 48 hrs by MTT assay; assay type: functional, cell-based; details: COLO 205, 48 h
[7] = Cytotoxicity against human MIAPaCa2 cells assessed as cell viability after 48 hrs by MTT assay; assay type: functional, cell-based; details: MIA PaCa-2, 48 h
A549 = test: Cytotoxicity against human A549 cells assessed as cell viability after 48 hrs by MTT assay; assay type: functional, cell-based; details: A549, 48 h
MDA-MB-231 [8] = test: Cytotoxicity against human MDA-MB-231 cells assessed as cell viability after 48 hrs by MTT assay; assay type: functional, cell-based; details: MDA-MB-231, 48 h
MCF7 [9] = test: Cytotoxicity against human MCF7 cells assessed as cell viability after 48 hrs by MTT assay; assay type: functional, cell-based; details: MCF7, 48 h
MCF7 [10] = test: Cytotoxicity against human MCF7 cells assessed as cell viability at 4 uM after 48 hrs by MTT assay; assay type: functional
MCF7 [11] = test: Cytotoxicity against human MCF7 cells assessed as cell viability at 2 uM after 48 hrs by MTT assay; assay type: functional
[12] = target: Telomerase reverse transcriptase (Homo sapiens) (UniProt O14746); test: Inhibition of telomerase activity in human MCF7 cells assessed as un-repairable DNA damage at 4 uM after 24 hrs; assay type: cell-based
MCF7 [13] = test: Induction of DNA damage in human MCF7 cells assessed as increase in gamma H2AX level measured at 4 uM after 24 hrs by Western blot analysis; assay type: functional, cell-based
MCF7 [14] = test: Induction of DNA damage in human MCF7 cells assessed as decrease in TRF2 level measured at 4 uM after 24 hrs by Western blot analysis; assay type: functional, cell-based
MCF7 [15] = test: Induction of DNA damage in human MCF7 cells assessed as increase in POT1 level measured at 4 uM after 24 hrs by Western blot analysis; assay type: functional, cell-based
MCF7 [16] = test: Induction of DNA damage in human MCF7 cells assessed as increase in TRF1 level measured at 4 uM after 24 hrs by Western blot analysis; assay type: functional, cell-based
HCT-116 [17] = test: Induction of senescence in human HCT116 cells assessed as increase in p16 expression at 4 uM after 24 hrs by Western blot analysis; assay type: functional, cell-based
SW116 = test: Induction of senescence in human SW116 cells assessed as increase in p21 expression at 4 uM after 24 hrs by Western blot analysis; assay type: functional, cell-based
HCT-116 [18] = test: Induction of senescence in human HCT116 cells assessed as increase in p21 expression at 4 uM after 24 hrs by Western blot analysis; assay type: functional, cell-based
MCF7 [19] = test: Induction of senescence in human MCF7 cells assessed as decrease in SKP2 expression at 4 uM after 24 hrs by Western blot analysis; assay type: functional, cell-based
MCF7 [20] = test: Induction of senescence in human MCF7 cells assessed as increase in p16 expression at 4 uM after 24 hrs by Western blot analysis; assay type: functional, cell-based
MCF7 [21] = test: Induction of senescence in human MCF7 cells assessed as increase in p21 expression at 4 uM after 24 hrs by Western blot analysis; assay type: functional, cell-based
MCF7 [22] = test: Induction of senescence in human MCF7 cells assessed as increase in p53 expression at 4 uM after 24 hrs by Western blot analysis; assay type: functional, cell-based
MDA-MB-231 [23] = test: Induction of senescence in human MDA-MB-231 cells expressing mutant p53 at 4 uM after 24 hrs by Western blot analysis; assay type: functional, cell-based
[24] = target: Telomerase reverse transcriptase (Homo sapiens) (UniProt O14746); test: Inhibition of telomerase activity in human A549 cells at 4 uM after 24 hrs by TRAP eze XL telomerase assay
MCF7 (Homo sapiens) = test: Induction of senescence in human MCF7 cells assessed as increase in p16 expression at 4 uM after 24 hrs by Western blot analysis

Telomerase reverse transcriptase (Homo sapiens), sequence (O14746 whole entry): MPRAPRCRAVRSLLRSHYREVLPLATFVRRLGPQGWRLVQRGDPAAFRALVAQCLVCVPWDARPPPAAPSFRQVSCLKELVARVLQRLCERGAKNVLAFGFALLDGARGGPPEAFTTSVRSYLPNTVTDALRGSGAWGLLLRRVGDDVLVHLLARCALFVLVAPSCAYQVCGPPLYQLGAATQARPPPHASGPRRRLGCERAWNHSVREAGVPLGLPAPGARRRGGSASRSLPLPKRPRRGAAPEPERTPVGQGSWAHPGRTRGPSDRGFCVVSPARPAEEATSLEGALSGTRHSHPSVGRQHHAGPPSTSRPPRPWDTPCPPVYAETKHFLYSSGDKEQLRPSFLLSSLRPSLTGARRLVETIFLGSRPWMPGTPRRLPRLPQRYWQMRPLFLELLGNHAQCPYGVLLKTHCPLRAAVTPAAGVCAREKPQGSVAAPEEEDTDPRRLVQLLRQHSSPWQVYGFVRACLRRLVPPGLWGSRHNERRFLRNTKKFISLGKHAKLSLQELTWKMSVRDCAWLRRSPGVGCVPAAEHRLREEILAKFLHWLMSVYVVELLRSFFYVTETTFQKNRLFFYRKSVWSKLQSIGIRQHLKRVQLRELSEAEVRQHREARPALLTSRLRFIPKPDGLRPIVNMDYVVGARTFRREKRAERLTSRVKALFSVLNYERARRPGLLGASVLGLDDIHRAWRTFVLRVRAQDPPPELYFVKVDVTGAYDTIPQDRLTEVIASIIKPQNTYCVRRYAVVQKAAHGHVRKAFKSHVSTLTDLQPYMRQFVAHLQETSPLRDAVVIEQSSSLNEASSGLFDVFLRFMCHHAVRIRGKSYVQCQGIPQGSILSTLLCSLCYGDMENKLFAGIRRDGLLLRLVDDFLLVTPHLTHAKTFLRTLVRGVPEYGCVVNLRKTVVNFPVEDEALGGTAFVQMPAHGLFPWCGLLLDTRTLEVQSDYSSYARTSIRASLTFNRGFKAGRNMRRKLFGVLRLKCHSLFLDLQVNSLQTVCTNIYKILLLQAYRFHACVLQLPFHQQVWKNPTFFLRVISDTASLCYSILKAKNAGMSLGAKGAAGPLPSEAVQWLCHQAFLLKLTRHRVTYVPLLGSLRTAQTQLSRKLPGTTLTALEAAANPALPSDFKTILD

SMILES | Activity (MCF7 [3]) [%] | Activity (MCF7 [4]) [%] | Activity (MCF7 [5]) [%] | IC50 [6] [µM] | IC50 (COLO 205) [µM] | IC50 [7] [µM] | IC50 (A549) [µM] | IC50 (MDA-MB-231 [8]) [µM] | IC50 (MCF7 [9]) [µM] | OD (MCF7 [10]) | OD (MCF7 [11]) | inhibition [12] | Activity (HCT-116 [17]) | Activity (SW116) | Activity (HCT-116 [18]) | inhibition (MCF7 [19]) | Activity (MCF7 [20]) | Activity (MCF7 [21]) | Activity (MCF7 [22]) | Activity (MCF7 (Homo sapiens)) | also measured
Cc1cc(C#Cc2ccc(C(C)(C)C)cc2)ccc1-n1c(/C=C/c2c(Cl)cccc2Cl)nc2ccccc2c1=O | 5 | 2 | 93 | 15 | 4.85 | 5.29 | 5.6 | 5.44 | 2.27 | 0.39 | 0.77 | Active | Active | Active | Active | Active | Active | Active | Active | Active | Activity (MCF7 [1]): Active; Activity (MCF7 [2]): Active; Activity (MCF7 [13]): Active; inhibition (MCF7 [14]): Active; Activity (MCF7 [15]): Active; Activity (MCF7 [16]): Active; Activity (MDA-MB-231 [23]): inactive; inhibition [24]: Active
Cc1cc(C#Cc2ccc(C(C)(C)C)cc2)ccc1-n1c(/C=C/c2ccc([N+](=O)[O-])o2)nc2ccccc2c1=O | 17 | 6 | 77 |  |  |  |  |  |  | 0.4 | 0.7 |  |  |  |  |  |  |  |  |  | 
COc1ccc(/C=C/c2nc3ccccc3c(=O)n2-c2ccc(C#Cc3ccc(C(C)(C)C)cc3)cc2C)cc1O | 5 | 4 | 91 | 12 | 5.19 | 6.8 | 5.74 | 5.69 | 3.88 | 0.27 | 0.84 | Active | Active | Active | Active | Active | Active | Active | Active | Active | Activity (MCF7 [13]): Active; inhibition (MCF7 [14]): Active; Activity (MCF7 [15]): Active; Activity (MCF7 [16]): Active
COc1ccc2cc(C#Cc3ccc(-n4c(/C=C/c5ccc6ccccc6c5)nc5ccccc5c4=O)c(C)c3)ccc2c1 | 22 | 9 | 69 |  |  |  |  |  |  | 0.46 | 0.81 |  |  |  |  |  |  |  |  |  | 
COc1cccc2c1C(=O)c1c(O)c3c(c(O)c1C2=O)C[C@@](O)(C(=O)CO)C[C@@H]3O[C@H]1C[C@H](N)[C@H](O)[C@H](C)O1 [DOXORUBICIN] | 16 | 2 | 82 | 31 | 0.37 | 0.14 | 0.73 | 0.16 | 0.1 |  |  |  | Active | Active | Active | Active | Active | Active | Active | Active | Activity (MCF7 [1]): Active; Activity (MDA-MB-231 [23]): inactive
Cc1cc(C#Cc2ccc(C(C)(C)C)cc2)ccc1-n1c(/C=C/c2ccnc3ccccc23)nc2ccccc2c1=O | 4 | 2 | 94 | 28 | 5.44 | 5.21 | 5.87 | 5.44 | 2.45 | 0.24 | 0.59 | Active | Active | Active | Active | Active | Active | Active | Active | Active | Activity (MCF7 [1]): Active; Activity (MCF7 [2]): Active; Activity (MCF7 [13]): Active; inhibition (MCF7 [14]): Active; Activity (MCF7 [15]): Active; Activity (MCF7 [16]): Active; Activity (MDA-MB-231 [23]): inactive; inhibition [24]: Active
Cc1cc(C#Cc2ccccc2)ccc1-n1c(/C=C/c2ccc(F)cc2)nc2ccccc2c1=O | 20 | 7 | 73 |  |  |  |  |  |  | 0.61 | 0.75 |  |  |  |  |  |  |  |  |  | 
COc1cc(/C=C/c2nc3ccccc3c(=O)n2-c2ccc(C#Cc3ccccc3)cc2C)cc(OC)c1OC | 5 | 5 | 90 | 8 | 6.24 | 6.01 | 6.54 | 5.56 | 2.46 | 0.27 | 0.47 | Active | Active | Active | Active | Active | Active | Active | Active | Active | Activity (MCF7 [13]): Active; inhibition (MCF7 [14]): Active; Activity (MCF7 [15]): Active; Activity (MCF7 [16]): Active
Cc1cc(C#Cc2ccccc2)ccc1-n1c(/C=C/c2ccc(Cl)cc2)nc2ccccc2c1=O | 18 | 7 | 75 |  |  |  |  |  |  | 0.48 | 0.74 |  |  |  |  |  |  |  |  |  | 
COc1ccc(/C=C/c2nc3ccccc3c(=O)n2-c2ccc(C#Cc3ccc(C(C)(C)C)cc3)cc2C)cc1OC | 6 | 3 | 91 | 13 | 5.68 | 5.89 | 6.15 | 5.84 | 2.72 | 0.27 | 0.41 | Active | Active | Active | Active | Active | Active | Active | Active | Active | Activity (MCF7 [13]): Active; inhibition (MCF7 [14]): Active; Activity (MCF7 [15]): Active; Activity (MCF7 [16]): Active
COc1ccc2cc(C#Cc3ccc(-n4c(/C=C/c5ccc(OC)c(OC)c5)nc5ccccc5c4=O)c(C)c3)ccc2c1 | 23 | 7 | 70 |  |  |  |  |  |  | 0.6 | 0.7 |  |  |  |  |  |  |  |  |  | 
Cc1ccccc1/C=C/c1nc2ccccc2c(=O)n1-c1ccc(C#Cc2ccccc2)cc1C | 6 | 6 | 88 |  |  |  |  |  |  | 0.51 | 0.78 |  |  |  |  |  |  |  |  |  | 
Cc1cc(C#Cc2ccccc2)ccc1-n1c(/C=C/c2cc(O)cc(O)c2)nc2ccccc2c1=O | 10 | 7 | 83 |  |  |  |  |  |  | 0.73 | 0.92 |  |  |  |  |  |  |  |  |  | 
Cc1cc(C#Cc2ccc(C(C)(C)C)cc2)ccc1-n1c(/C=C/c2ccc([N+](=O)[O-])s2)nc2ccccc2c1=O | 24 | 8 | 68 |  |  |  |  |  |  | 0.25 | 0.54 |  |  |  |  |  |  |  |  |  | 
